One data set deals with T1, murine ATGL (Mus musculus, UniProt Q8BJ56).
T1 construct: made in house; host or cells: Expi cells (lysate)
T1 sequence (Q8BJ56 1-486): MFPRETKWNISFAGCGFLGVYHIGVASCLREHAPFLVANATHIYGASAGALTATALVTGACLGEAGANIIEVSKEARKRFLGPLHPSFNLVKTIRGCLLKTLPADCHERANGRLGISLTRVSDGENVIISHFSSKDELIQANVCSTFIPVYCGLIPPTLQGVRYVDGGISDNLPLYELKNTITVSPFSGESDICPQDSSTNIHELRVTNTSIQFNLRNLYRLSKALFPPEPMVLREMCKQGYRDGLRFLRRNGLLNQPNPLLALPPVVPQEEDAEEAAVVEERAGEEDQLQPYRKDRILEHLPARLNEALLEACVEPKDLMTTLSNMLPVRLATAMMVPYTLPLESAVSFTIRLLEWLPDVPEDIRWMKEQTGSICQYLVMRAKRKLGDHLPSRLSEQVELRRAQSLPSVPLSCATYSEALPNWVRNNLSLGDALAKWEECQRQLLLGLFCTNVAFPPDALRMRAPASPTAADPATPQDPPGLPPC
Description: TG hydrolase activity, Expi lysates expressing mouse ATGL + CGI-58, radiolabelled triolein. It counts as biochemical. Put shortly: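 Lysates of Expi cells overexpressing mouse ATGL, with added recombinant CGI-58, were incubated with inhibitor at 50 μM. Substrate was emulsified radiolabelled triolein with PC/PI in 100 mM potassium phosphate pH 7.0 and 5% FA-free BSA, 1 h at 37° C. Released FA were extracted and counted by scintillation; triplicates, DMSO control.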

Another data set has as its target T2, human ATGL (Homo sapiens, UniProt Q96AD5).
T2 construct: made in house; host or cells: Expi cells (lysate, not purified)
T2 sequence (Q96AD5 1-504): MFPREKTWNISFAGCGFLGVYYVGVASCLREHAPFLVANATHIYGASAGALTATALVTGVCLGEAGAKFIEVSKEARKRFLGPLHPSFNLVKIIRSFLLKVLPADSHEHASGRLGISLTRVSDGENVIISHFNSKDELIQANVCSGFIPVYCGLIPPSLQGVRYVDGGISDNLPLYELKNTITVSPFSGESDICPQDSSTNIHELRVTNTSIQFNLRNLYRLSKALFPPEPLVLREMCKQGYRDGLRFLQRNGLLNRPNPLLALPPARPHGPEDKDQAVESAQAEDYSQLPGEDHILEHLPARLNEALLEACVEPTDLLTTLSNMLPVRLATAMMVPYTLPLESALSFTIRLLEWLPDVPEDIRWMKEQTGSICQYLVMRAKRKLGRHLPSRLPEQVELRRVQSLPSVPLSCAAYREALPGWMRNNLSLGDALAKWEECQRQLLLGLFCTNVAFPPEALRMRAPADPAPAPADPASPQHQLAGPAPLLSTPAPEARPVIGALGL
Kind of data set: TG hydrolase activity, Expi cell lysates expressing human ATGL + CGI-58, radiolabelled triolein. The class given is biochemical. Put shortly:
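Lysates of Expi cells expressing ATGL, supplemented with purified CGI-58 and inhibitor in DMSO, incubated 1 h at 37 °C with emulsified radiolabelled triolein (330 μM) in potassium phosphate pH 7.0 with 5% FA-free BSA. Released FA counted by liquid scintillation after phase extraction; IC50 versus DMSO control, duplicates.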

The mark [1] stands for this setting: 50 μM compound, Example 237, read-out: Inhibition of murine ATGL at 50 μM − mean [%].
Where [2] appears, read: Example 237, read-out: Inhibition of human ATGL − IC50.
Setting [3] is: 50 μM, Example 238, read-out: % Inhibition of murine ATGL at 50 μM.
[4] abbreviates: Example 238, read-out: Inhibition of human ATGL IC50.

SMILES strings stand for the structures. Where two headings read alike, the source gives them in different places.

This note sets out measurements from US20220289698A1, “INHIBITORS OF HUMAN ATGL” (Karl-Franzens-Universität Graz, priority 2019, published 2022).

Compound `CC(C)OC(=O)c1cccc(-c2ccc(OC(F)(F)F)cc2)n1` [Example 37] gave a melting point of 43 to 47 °C. Further, the inhibition at 50 µM on murine ATGL (setting [1]) is 22.8%. In addition, the IC50 at human ATGL (setting [2]) came to 10 µM.

`CC(C)OC(=O)c1cccc(-c2ccc(OCC(F)(F)F)cc2)n1` [Example 38] came in with a melting point of 70 to 75 °C. Moreover, the inhibition at 50 µM at murine ATGL (setting [1]) came out at 5.7%. In addition, the IC50 at human ATGL (setting [2]) came to 5 µM.

On to `C#CCOC(=O)c1cccc(-c2ccc(OCC)cc2)n1` [Example 51], for which the melting point lay within 76 to 78 °C. At murine ATGL (setting [1]), the inhibition at 50 µM was 31.8%. Moreover, at human ATGL (setting [2]), the IC50 is 15 µM.

Regarding `CCc1ccc(-c2cccc(C(=O)OC(C)C)n2)cc1` [Example 55], the melting point lay within 82 to 84 °C. Also, the inhibition at 50 µM at murine ATGL (setting [1]) turned out to be 1.4%. The IC50 on human ATGL (setting [2]) was 3 µM.

Compound `COc1cc(C(=O)OC(C)C)nc(-c2ccc(C(F)(F)F)cc2)c1` [Example 58] showed a melting point of 55 to 56 °C. In addition, the inhibition at 50 µM on murine ATGL (setting [1]) was determined as 0%. Further, at human ATGL (setting [2]), the IC50 stood at 7 µM.

As for `C#CC(C)OC(=O)c1cccc(-c2ccc(CCC)cc2)n1` (stereo not drawn) [Example 70], the melting point was 90 to 92 °C. Besides, the inhibition at 50 µM at murine ATGL (setting [1]) was determined as 0%. Moreover, on human ATGL (setting [2]), the IC50 was determined as 3 µM.

In the case of `CC(C)OC(=O)c1cccc(/C=C/c2ccccc2)n1` [Example 76], the melting point lay in the range of 66 to 71 °C. Besides, the inhibition at 50 µM on murine ATGL (setting [1]) is 5.1%. Further, the IC50 on human ATGL (setting [2]) was determined as 10 µM.

`CCCCCCOc1ccc(-c2cc(OC)cc(C(=O)OC(C)C)n2)cc1` [Example 83] returned a melting point of 53 to 55 °C. Also, the inhibition at 50 µM at murine ATGL (setting [1]) was 0.1%. Further, the IC50 on human ATGL (setting [2]) worked out at 2.5 µM.

The compound `CC(C)OC(=O)c1cccc(-c2ccc(-c3nc4ccccc4n3-c3ccccc3)cc2)n1` [Example 84] displayed a melting point of 172 to 176 °C. Moreover, at murine ATGL (setting [1]), the inhibition at 50 µM turned out to be 0%. Besides, the IC50 on human ATGL (setting [2]) stood at 10 µM.

For the compound `CCCCCOc1ccc(-c2cccc(C(=O)OC(C)C)n2)cc1` [Example 85], the melting point fell in the range of 63 to 65 °C. For the same compound, the inhibition at 50 µM on murine ATGL (setting [1]) came to 0%. In addition, on human ATGL (setting [2]), the IC50 worked out at 3 µM.

Consider `CC(C)OC(=O)c1cccc(-c2ccc(Cl)cc2)n1` [Example 87], for which the melting point lay in the range of 94 to 95 °C. For the same compound, at murine ATGL (setting [1]), the inhibition at 50 µM was determined as 0%. Further, at human ATGL (setting [2]), the IC50 was 3 µM.

`CCOC(=O)c1cccc(-c2ccc(C#N)cc2)n1` [Example 88]: the melting point was in the range of 108 to 109 °C. Also, the inhibition at 50 µM at murine ATGL (setting [1]) came to 0%. For the same compound, on human ATGL (setting [2]), the IC50 worked out at 25 µM.

In turn, `CCCCCCOc1ccc(-c2cccc(C(=O)OC)n2)cc1` [Example 89] yielded a melting point of 68 to 69 °C. Besides, the inhibition at 50 µM at murine ATGL (setting [1]) came out at 0%. Besides, the IC50 at human ATGL (setting [2]) was 25 µM.

`CCCCc1ccc(-c2cccc(C(=O)OC(C)C)n2)cc1` [Example 94] returned a melting point of 51 to 55 °C. On murine ATGL (setting [1]), the inhibition at 50 µM worked out at 0%. The IC50 at human ATGL (setting [2]) was found to be 2 µM.

Compound `CCOC(=O)c1csc(-c2ccc(OCc3ccccc3)cc2)n1` [Example 187, Ethyl 2-(4-(benzyloxy)phenyl)thiazole-4-carboxylate] had a melting point of 112 to 115 °C. Further, the inhibition at 50 µM at murine ATGL (setting [1]) came out at 10.2%. Also, at human ATGL (setting [2]), the IC50 stood at 15 µM.

With `CCOc1ccc(-c2cccc(C(=O)OCc3ccsc3)n2)cc1` [Example 197, Thiophen-3-ylmethyl 6-(4-ethoxyphenyl)picolinate], the melting point lay within 90 to 93 °C. Moreover, the inhibition at 50 µM at murine ATGL (setting [3]) worked out at 75%. In addition, the IC50 at human ATGL (setting [4]) came to 30 µM.

Turning to `CCOc1ccc(-c2cccc(C(=O)OCc3ccoc3)n2)cc1` [Example 198, Furan-3-ylmethyl 6-(4-ethoxyphenyl)picolinate], the melting point fell in the range of 97 to 101 °C. Besides, the inhibition at 50 µM on murine ATGL (setting [3]) was determined as 82%. The IC50 at human ATGL (setting [4]) was 20 µM.
